Measured values reported in ChEMBL document CHEMBL6115036, “Exploration of membrane-active cephalosporin derivatives as potent antibacterial agents against Staphylococcus aureus biofilms and persisters” (Eur J Med Chem, 2025).
≈ marks a conversion by molar mass, not a printed value.

Tests used:
[1] = tested on: Enterococcus faecalis; assay: Antimicrobial activity against Enterococcus faecalis incubated for 16 to 18 hrs by broth dilution assay; type: functional; settings: time 16-18 hrs
[2] = tested on: Stenotrophomonas maltophilia; assay: Antimicrobial activity against Stenotrophomonas maltophilia incubated for 16 to 18 hrs by broth dilution assay; type: functional; settings: time 16-18 hrs
[3] = tested on: Staphylococcus aureus; assay: Antibacterial activity against Staphylococcus aureus assessed as fold increase in MIC in presence of 50% sheep plasma; type: functional
[4] = tested on: Staphylococcus aureus; assay: Antibacterial activity against Staphylococcus aureus assessed as fold increase in MIC in presence of 50% FBS; type: functional
[5] = tested on: Staphylococcus aureus; assay: Induction of intracellular ROS accumulation in Staphylococcus aureus incubated overnight by DCFH-DA dye based analysis; type: functional, organism-based
[6] = Cytotoxicity against human HeLa cells incubated for 24 hrs by CCK8 assay; type: toxicity, cell-based
[7] = Cytotoxicity against HUVEC cells incubated for 24 hrs by CCK8 assay; type: toxicity, cell-based; settings: human

## CC[C@H](C)[C@H](NC(=O)CN)C(=O)NCC(=O)N[C@@H](C)C(=O)N[C@H](C(=O)N[C@@H](CC(C)C)C(=O)N[C@@H](CCCCN)C(=O)N[C@H](C(=O)N[C@@H](CC(C)C)C(=O)N[C@H](C(=O)N[C@H](C(=O)NCC(=O)N[C@@H](CC(C)C)C(=O)N1CCC[C@H]1C(=O)N[C@@H](C)C(=O)N[C@@H](CC(C)C)C(=O)N[C@H](C(=O)N[C@@H](CO)C(=O)N[C@@H](Cc1c[nH]c2ccccc12)C(=O)N[C@H](C(=O)N[C@@H](CCCCN)C(=O)N[C@@H](CCCNC(=N)N)C(=O)N[C@@H](CCCCN)C(=O)N[C@@H](CCCNC(=N)N)C(=O)N[C@@H](CCC(N)=O)C(=O)N[C@@H](CCC(N)=O)C(N)=O)[C@@H](C)CC)[C@@H](C)CC)[C@@H](C)O)[C@@H](C)O)C(C)C)C(C)C [MELITTIN]
[1]
  MIC: 2 µg/mL (≈ 0.703 µM)
[2]
  MIC: 8 µg/mL (≈ 2.81 µM)
[3]
  fold change (FC): >32
[4]
  fold change (FC): >32
[5]
  Activity: Dose-dependent-effect
[6]
  CC50 at 24 h: 3.9 µg/mL (≈ 1.37 µM)
[7]
  CC50 at 24 h: 3.8 µg/mL (≈ 1.33 µM)
